Experimental data as given in patent EP4775580A1, “COMPOUND, PHARMACEUTICAL COMPOSITION COMPRISING SAME, AND USE THEREOF” (Euregen Biopharma Co., Ltd., priority 2023, dated 2025).
Like-named read-outs stand apart in the source and are kept apart here.

What was measured:
[1] = tested on: Molm-13 cells; experiment: Antiproliferative activity, CellTiter-Glo, 7 days (Test Example 2), Molm-13; assay type: cell-based; conditions: Homo sapiens, 168 h, 7 days incubation, read-out: MOLM13 IC50
From the text: [0134] 1. Experimental Principle: MV-4-11, Molm-13, and OCI-AML-3 cells are human hematologic tumor cell lines harboring the Menin-MLL fusion. HL-60 is a wild-type human hematologic tumor cell line without Menin-MLL fusion. […] 2. Experimental Materials: MV-4-11, Molm-13, OCI-AML-3, and HL-60 cells were all purchased from Cobioer; CellTiter-Glo® was purchased from Promega (Cat. #G7571); RPMI-1640 was purchased from Viva Cell (Cat. #C3010-0500); IMDM was purchased from Viva Cell (Cat. #C3040-0500); fetal bovine serum (FBS) was purchased from Biosera (Cat. #FB-1058/500); penicillin-streptomycin was purchased from BasalMedia (Cat. #S110JV); 0.25% Trypsin-EDTA was purchased from BasalMedia (Cat. #S310KJ); dimethyl sulfoxide (DMSO) was purchased from Sinopharm (Cat. #30072418); 96-well plates were purchased from Corning (Cat. #3610); incubator was obtained from PHCbi (Model: MCO-18AC); inverted microscope was obtained from Mingmei (Cat. #MI52-0); automated cell counter was obtained from BodBoge (Model: JSY-SC-031N); microplate reader was obtained from PerkinElmer (Model: Envision); data processing software: GraphPad Prism 8.0. 3. […] After incubation at room temperature for 10 minutes, luminescence values were read using the EnVision microplate reader, and IC50 values were calculated using GraphPad Prism 8.0 software. […]

[2] = tested on: MV-4-11 cells; experiment: Antiproliferative activity against MV-4-11 cells (CTG method, 72 h); assay type: cell-based; conditions: Homo sapiens, MV4-11, 72 hours incubation, CellTiter-Glo
From the text: • 1. Experimental Principle: MV-4-11 is a human leukemia cell line harboring MLL translocation and expressing the MLL fusion protein MLL-AF4. […] Experimental Materials: CellTiter-Glo was purchased from Promega (Cat. #G7571); IMDM medium was purchased from Gibco (Cat. #12440061); fetal bovine serum was purchased from Excell (Cat. #FND500); dimethyl sulfoxide (DMSO) was purchased from Sigma (Cat. #D2650); 384-well cell culture plates were purchased from Corning (Cat. #3756); automated cell counter was obtained from Life Technologies (Model: Countess II); microplate reader was obtained from PerkinElmer (Model: EnVision Multilabel Reader). • 3. Experimental Methods: Cells in logarithmic growth phase were resuspended in growth medium (IMDM + 10% FBS) and diluted to the target density (50,000/mL). The cell suspension was seeded into 384-well plates at 50 µL per well and incubated overnight at 37°C in a 5% CO2 incubator.
Test compounds were dissolved in DMSO to prepare 10 mM stock solutions. The stock solutions were first diluted to 2 mmol/L with DMSO, followed by 3-fold serial dilutions to generate 10 concentrations. From each concentration, 5.5 µL was diluted with 94.5 µL growth medium. The diluted solutions were then added to the 384-well plates containing seeded cells at 5 µL per well.
Cells treated with test compounds were incubated at 37°C in a 5% CO2 incubator for 72 hours. The 384-well plates were equilibrated at room temperature, and 15 µL of CellTiter-Glo reagent was added to each well. The plates were mixed on a vortex mixer for 2 minutes and incubated at room temperature for 60 minutes. Luminescence values were read using the EnVision Multilabel Reader, and IC50 values were calculated using GraphPad Prism 5.0 software.

[3] = Pharmacokinetics in rats after single IV and PO administration (LC-MS/MS); assay type: in vivo, male SD rats; conditions: SD rats
Experimental: • 1. Objective: This study aimed to characterize the pharmacokinetic properties of selected compounds from the examples of the present invention in SD rats following single intravenous (IV) injection and oral (PO) administration using LC-MS/MS methodology. • 2. Experimental Materials: Test compounds were prepared according to the examples of the present invention; male SD rats were obtained from the Laboratory Animal Department of Shanghai Institute of Planned Parenthood Research (License No. SCXK(Shanghai)2018-0006) or Shanghai Jihui Laboratory Animal Breeding Co., Ltd. (License No. SCXK(Shanghai)2022-0009). • 3. Experimental Methods: Preparation of 0.5% methylcellulose: 5 g of methylcellulose was weighed and dissolved in 1000 mL of purified water. Preparation of 0.5% methylcellulose (pH = 5.03): 5 g of methylcellulose was weighed and dissolved in 1000 mL of purified water, and the pH was adjusted to 5.03 with 100 mM citric acid.
Preparation of oral formulations: The required amount of test compound was weighed and dissolved in 0.5% methylcellulose solution or 0.5% methylcellulose (pH = 5.03) to obtain a suspension or solution at 1 or 3 mg/mL.
Preparation of intravenous injection formulations: The required amount of test compound (EB229, EB300, EB341, EB342) was weighed and dissolved in 0.5 mL dimethyl sulfoxide to prepare a 4 mg/mL solution. To 0.25 mL of this solution, 0.5 mL of polyethylene glycol 15-hydroxystearate (Solutol) and 4.25 mL of normal saline were added to obtain a 0.2 mg/mL solution. For EB834, 6 mg was weighed and dissolved in 0.1 mL dimethyl sulfoxide, followed by addition of 0.2 mL polyethylene glycol 15-hydroxystearate (Solutol) and 1.7 mL normal saline to obtain a 3 mg/mL solution.
Dosing: Male SD rats were fasted overnight prior to oral (PO) administration; fasting was not required for the single intravenous (IV) injection group. Food was provided 4 hours post-dosing.
Sample Collection: Blood was collected from the jugular vein or other suitable veins, with 0.2 mL collected at each time point. Samples were placed in tubes containing dipotassium ethylenediaminetetraacetate and kept on ice prior to centrifugation. Within 1 hour of blood collection, samples were centrifuged at 6800 × g for 6 minutes at 2-8°C and stored at -80°C.

Compound: CCN(C(=O)c1cc(F)ccc1N1CCN([C@@H]2CCN([C@H](CCCN(C)CCOC)C(C)C)C2)c2ncncc21)C(C)C [Example 3]
- IC50 [1]: 26.7 nM
- IC50 [2]: 22.9 nM
- PO F ([3]; PO 30 mg/kg vs IV 3 mg/kg): 172%
- AUC(0-t) ([3]; rat, in vivo, IV 3 mg/kg, read-out: IV AUC(0-t)): 494 ng·h/mL
- clearance ([3]; rat, in vivo, IV 3 mg/kg, read-out: IV CL): 59.2 mL/min/kg
- Cmax ([3]; rat, in vivo, IV 3 mg/kg, read-out: IV Cmax): 193 ng/mL
- Vd ([3]; rat, in vivo, IV 3 mg/kg, read-out: IV Vss): 203 L/kg
- half-life ([3]; rat, in vivo, IV 3 mg/kg, read-out: IV t1/2 (converted)): 52.9 h
- AUC(0-t) ([3]; rat, in vivo, PO 30 mg/kg, 0.5% MC (pH 5.03), read-out: PO AUC(0-t)): 8500 ng·h/mL
- Cmax ([3]; rat, in vivo, PO 30 mg/kg, 0.5% MC (pH 5.03), read-out: PO Cmax): 1140 ng/mL
- half-life ([3]; rat, in vivo, PO 30 mg/kg, 0.5% MC (pH 5.03), read-out: PO t1/2 (converted)): 21.3 h
